# In PMC4045324 (Biochemistry, 2014):
# Key:
# [1] = target: MtDXR W203F (Mycobacterium tuberculosis, UniProt P9WNS1, W203F)
# [2] = target: MtDXR W203Y (Mycobacterium tuberculosis, UniProt P9WNS1, W203Y)
smiles,measurement,setting,value
O=CN(O)CCCP(=O)(O)O [fosmidomycin],binding enthalpy more exothermic than wild type by,[1],2.8 kcal/mol
same,enthalpy share of total binding energy (enthalpy-driven binding),[1],75%
same,ΔG°,[1]; pH 7.5,–10.10 ± 0.05 kcal/mol
same,ΔH°,[1]; pH 7.5,–7.6 ± 0.7 kcal/mol
same,–TΔS°,[1]; pH 7.5,–2.5 ± 0.7 kcal/mol
same,binding enthalpy more exothermic than wild type by,[2],5.4 kcal/mol
same,enthalpy share of total binding energy (enthalpy-driven binding),[2],91%
same,ΔG°,[2]; pH 7.5,–11.26 ± 0.19 kcal/mol
same,ΔH°,[2]; pH 7.5,–10.2 ± 0.3 kcal/mol
same,–TΔS°,[2]; pH 7.5,–1.0 ± 0.4 kcal/mol
